Reference: US10221163B2 (priority 2015, dated 2019)
Where two headings read alike, the source gives them in different places.

Legend:
[1] = system: Pseudomonas aeruginosa efflux− (MB9799), IMP-1; format: cell-based; conditions: efflux− MB9799; imipenem at 2 μg/mL; in the presence of a class A, C, D serine β-lactamase inhibitor closely related to relebactam
Method in brief: (§1)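 Microbroth MIC tests in PAO1-background strains with fixed imipenem and/or ceftazidime, usually at the CLSI breakpoint, plus fixed class A/C β-lactamase inhibitor against AmpC. MBL inhibitor titrated; concentration restoring susceptibility recorded and compared as fold difference between efflux+ MB9798 and efflux− MB9799.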

[2] = system: Serratia marcescens expressing IMP-1 (CL5741); format: cell-based; conditions: IMP-1 strain CL5741, with imipenem 1 μg/ml, 95% inhibition of growth
Method in brief: (§2)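 Imipenem 1 μg/ml + inhibitor; MBL-expressing clinical strains in 1.1×CAMHB, inoculum from saline suspension diluted 1:100; 35° C, 22–24 h; absorbance read-out.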

[3] = system: Escherichia coli expressing NDM-1 (CLB30005, CLB30016); format: cell-based; conditions: NDM-1 strain, with imipenem 1 μg/ml, 95% inhibition of growth
Method in brief: as §2

[4] = system: Klebsiella pneumoniae expressing VIM-1 (IHMA599644); format: cell-based; conditions: VIM-1 strain IHMA599644, with imipenem 1 μg/ml, 95% inhibition of growth
Method in brief: as §2

[5] = system: Pseudomonas aeruginosa efflux+ (MB9798), IMP-1; format: cell-based; set-up: Concentration of metallo-β-lactamase inhibitor which restores susceptibility of efflux + (MB9798) strain to imipenem: unit not given here; conditions: efflux+ MB9798; imipenem at 2 μg/mL; in the presence of a class A, C, D serine β-lactamase inhibitor closely related to relebactam
Method in brief: as §1

[6] = target: VIM-1 (Pseudomonas aeruginosa (strain ATCC 15692 / DSM 22644 / CIP 104116 / JCM 14847 / LMG 12228 / 1C / PRS 101 / PAO1), UniProt A0A0F7KYQ8); experiment: biochemical; conditions: CCF2-FA substrate, 30 pM enzyme, 2 hours at 25° C.
Method in brief: (§3)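 IC50 values derive from 4-parameter fits of percent inhibition against inhibitor concentration on semi-log axes. Activity was monitored by fluorescence with the CCF2-FA substrate after a 2-hour, 25° C incubation of compound, enzyme and substrate.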

[7] = target: IMP-1 (Serratia marcescens, UniProt P52699); experiment: biochemical; format: biochemical; conditions: fluorescence assay, CCF2-FA substrate, 2 pM enzyme, 2 hours at 25° C.; read-out: IMP-1 IC50
Chain of IMP-1 (P52699 whole entry, looked up, species assumed): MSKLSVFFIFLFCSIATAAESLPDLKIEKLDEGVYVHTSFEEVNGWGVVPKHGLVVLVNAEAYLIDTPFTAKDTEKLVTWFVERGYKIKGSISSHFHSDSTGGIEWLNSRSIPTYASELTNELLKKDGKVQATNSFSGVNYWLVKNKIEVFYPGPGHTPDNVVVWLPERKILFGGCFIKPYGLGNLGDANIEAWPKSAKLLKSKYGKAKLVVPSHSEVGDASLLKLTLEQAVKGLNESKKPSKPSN
Method in brief: as §3

[8] = target: NDM-1 (Klebsiella pneumoniae, UniProt C7C422); experiment: biochemical; format: biochemical; conditions: fluorescence assay, CCF2-FA substrate, 1 pM enzyme, 2 hours at 25° C.; read-out: NDM-1 IC50
Chain of NDM-1 (C7C422 whole entry, looked up, species assumed): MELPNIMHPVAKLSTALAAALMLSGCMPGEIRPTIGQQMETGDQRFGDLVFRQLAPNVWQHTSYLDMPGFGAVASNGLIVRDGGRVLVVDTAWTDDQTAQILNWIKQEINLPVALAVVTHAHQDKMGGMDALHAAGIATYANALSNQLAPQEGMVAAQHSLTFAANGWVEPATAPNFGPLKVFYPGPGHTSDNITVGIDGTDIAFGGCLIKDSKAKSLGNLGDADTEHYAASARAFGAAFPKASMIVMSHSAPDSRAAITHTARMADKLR
Method in brief: as §3

[9] = system: Pseudomonas aeruginosa MB9798 vs MB9799; conditions: fold difference between efflux+ (MB9798) and efflux− (MB9799) strains; imipenem at 2 μg/mL
Method in brief: as §1

[10] = fluorescence assay, read-out: VIM-1 IC50

SMILES: Nc1ncc(-c2cccc(-c3ccc(S(=O)(=O)N[C@@H]4CCNC4)c(S(N)(=O)=O)c3-c3nnn[nH]3)n2)[nH]1 [Example 439, (R)-4-(6-(2-Amino-1H-imidazol-5-yl)pyridin-2-yl)-N^1-(pyrrolidin-3-yl)-3-(1H-tetrazol-5-yl)benzene-1,2-disulfonamide]
- Concentration of metallo-β-lactamase inhibitor which restores susceptibility of efflux − (MB9799) strain to imipenem [1]: 1.563
- Serratia marcescens MITC95 [2]: 1.563 µM
- Escherichia coli MITC95 [3]: 3.125 µM
- Klebsiella pneumoniae MITC95 [4]: 1.563 µM
- Concentration of metallo-β-lactamase inhibitor which restores susceptibility of efflux + (MB9798) strain to imipenem [5]: 6.25
- IC50 [6, 10]: 629 pM
- IC50 [7]: 6720 pM
- IC50 [8]: 254 pM
- Efflux ratio [9]: 4.00

SMILES: Nc1ncc(-c2cc(-c3ccc(S(=O)(=O)N[C@@H]4CCNC4)c(S(N)(=O)=O)c3-c3nnn[nH]3)ccn2)[nH]1 [Example 440, (R)-4-(2-(2-Amino-1H-imidazol-5-yl)pyridin-4-yl)-N^1-(pyrrolidin-3-yl)-3-(1H-tetrazol-5-yl)benzene-1,2-disulfonamide]
- Concentration of metallo-β-lactamase inhibitor which restores susceptibility of efflux − (MB9799) strain to imipenem [1]: 0.7813
- Serratia marcescens MITC95 [2]: 1.563 µM
- Escherichia coli MITC95 [3]: 0.7813 µM
- Klebsiella pneumoniae MITC95 [4]: 1.563 µM
- Concentration of metallo-β-lactamase inhibitor which restores susceptibility of efflux + (MB9798) strain to imipenem [5]: 1.563
- IC50 ([6]; VIM-1 IC50, fluorescence assay): 571 pM
- IC50 [7]: 3960 pM
- IC50 [8]: 333 pM
- Efflux ratio [9]: 2.00

SMILES: C[C@H](N)Cc1nc2c(-c3ccc(S(N)(=O)=O)c(S(N)(=O)=O)c3-c3nn[nH]n3)cccc2[nH]1 [Example 442, (S)-4-(2-(2-aminopropyl)-1H-benzo[d]imidazol-4-yl)-3-(2H-tetrazol-5-yl)benzene-1,2-disulfonamide]
- Concentration of metallo-β-lactamase inhibitor which restores susceptibility of efflux − (MB9799) strain to imipenem [1]: 1.563
- Serratia marcescens MITC95 [2]: 1.563 µM
- Escherichia coli MITC95 [3]: 1.563 µM
- Klebsiella pneumoniae MITC95 [4]: 3.125 µM
- Concentration of metallo-β-lactamase inhibitor which restores susceptibility of efflux + (MB9798) strain to imipenem [5]: 0.7813
- IC50 ([6]; VIM-1 IC50, fluorescence assay): 249 pM
- IC50 [7]: 1330 pM
- IC50 [8]: 432 pM
- Efflux ratio [9]: 0.50

SMILES: NCCNS(=O)(=O)c1ccc(-c2cccc3[nH]c([C@@H]4C[C@@H](O)CN4)nc23)c(-c2nn[nH]n2)c1S(N)(=O)=O [Example 444, N1-(2-aminoethyl)-4-(2-((2S,4R)-4-hydroxypyrrolidin-2-yl)-1H-benzo[d]imidazol-4-yl)-3-(2H-tetrazol-5-yl)benzene-1,2-disulfonamide]
- Concentration of metallo-β-lactamase inhibitor which restores susceptibility of efflux − (MB9799) strain to imipenem [1]: 1.563
- Serratia marcescens MITC95 [2]: 3.125 µM
- Escherichia coli MITC95 [3]: 1.563 µM
- Klebsiella pneumoniae MITC95 [4]: 3.125 µM
- Concentration of metallo-β-lactamase inhibitor which restores susceptibility of efflux + (MB9798) strain to imipenem [5]: 1.563
- IC50 ([6]; VIM-1 IC50, fluorescence assay): 235 pM
- IC50 [7]: 1590 pM
- IC50 [8]: 236 pM
- Efflux ratio [9]: 1.00

SMILES: NCCNS(=O)(=O)c1ccc(-c2cccc3[nH]c(C(F)(F)CN)nc23)c(-c2nn[nH]n2)c1S(N)(=O)=O [Example 445, 4-(2-(2-amino-1,1-difluoroethyl)-1H-benzo[d]imidazol-4-yl)-N1-(2-aminoethyl)-3-(2H-tetrazol-5-yl)benzene-1,2-disulfonamide]
- Concentration of metallo-β-lactamase inhibitor which restores susceptibility of efflux − (MB9799) strain to imipenem [1]: 1.563
- Serratia marcescens MITC95 [2]: 3.125 µM
- Escherichia coli MITC95 [3]: 3.125 µM
- Klebsiella pneumoniae MITC95 [4]: 3.125 µM
- Concentration of metallo-β-lactamase inhibitor which restores susceptibility of efflux + (MB9798) strain to imipenem [5]: 1.563
- IC50 [6, 10]: 114 pM
- IC50 [7]: 370 pM
- IC50 [8]: 44.6 pM
- Efflux ratio [9]: 1.00

SMILES: NCC(F)(F)c1nc2c(-c3ccc(S(=O)(=O)N[C@H]4CCNC4)c(S(N)(=O)=O)c3-c3nn[nH]n3)cccc2[nH]1 [Example 446, (S)-4-(2-(2-amino-1,1-difluoroethyl)-1H-benzo[d]imidazol-4-yl)-N1-(pyrrolidin-3-yl)-3-(2H-tetrazol-5-yl)benzene-1,2-disulfonamide]
- Concentration of metallo-β-lactamase inhibitor which restores susceptibility of efflux − (MB9799) strain to imipenem [1]: 1.563
- Serratia marcescens MITC95 [2]: 3.125 µM
- Escherichia coli MITC95 [3]: 1.563 µM
- Klebsiella pneumoniae MITC95 [4]: 3.125 µM
- Concentration of metallo-β-lactamase inhibitor which restores susceptibility of efflux + (MB9798) strain to imipenem [5]: 3.125
- IC50 [6, 10]: 153 pM
- IC50 [7]: 446 pM
- IC50 [8]: 56.9 pM
- Efflux ratio [9]: 2.00

SMILES: NCCNC(=O)c1cc(Cl)cc(-c2ccc(S(=O)(=O)NCCN)c(S(N)(=O)=O)c2-c2nn[nH]n2)c1N [Example 447, 2-Amino-N-(2-aminoethyl)-4′-(N-(2-aminoethyl)sulfamoyl)-5-chloro-3′-sulfamoyl-2′-(2H-tetrazol-5-yl)-[1,1′-biphenyl]-3-carboxamide]
- Concentration of metallo-β-lactamase inhibitor which restores susceptibility of efflux − (MB9799) strain to imipenem [1]: 0.7813
- Serratia marcescens MITC95 [2]: 0.7813 µM
- Escherichia coli MITC95 [3]: 0.7813 µM
- Klebsiella pneumoniae MITC95 [4]: 1.563 µM
- Concentration of metallo-β-lactamase inhibitor which restores susceptibility of efflux + (MB9798) strain to imipenem [5]: 1.563
- IC50 ([6]; VIM-1 IC50, fluorescence assay): 180 pM
- IC50 [7]: 1600 pM
- IC50 [8]: 646 pM
- Efflux ratio [9]: 2.00

SMILES: Nc1nc2c(-c3ccc(S(=O)(=O)N[C@@H]4C[C@H]4N)c(S(N)(=O)=O)c3-c3nnn[nH]3)cccc2[nH]1 [Example 448, 4-(2-amino-1H-benzo[d]imidazol-4-yl)-N^1-((1R,2R)-2-aminocyclopropyl)-3-(1H-tetrazol-5-yl)benzene-1,2-disulfonamide]
- Concentration of metallo-β-lactamase inhibitor which restores susceptibility of efflux − (MB9799) strain to imipenem [1]: 3.125
- Serratia marcescens MITC95 [2]: 1.563 µM
- Escherichia coli MITC95 [3]: 0.7813 µM
- Klebsiella pneumoniae MITC95 [4]: 6.25 µM
- Concentration of metallo-β-lactamase inhibitor which restores susceptibility of efflux + (MB9798) strain to imipenem [5]: 1.563
- IC50 [6, 10]: 557 pM
- IC50 [7]: 988 pM
- IC50 [8]: 151 pM
- Efflux ratio [9]: 0.50

SMILES: CN(CCN)S(=O)(=O)c1ccc(-c2cccc3[nH]c(N)nc23)c(-c2nn[nH]n2)c1S(N)(=O)=O [Example 449, 4-(2-amino-1H-benzo[d]imidazol-4-yl)-N^1-(2-aminoethyl)-N^1-methyl-3-(2H-tetrazol-5-yl)benzene-1,2-disulfonamide]
- Concentration of metallo-β-lactamase inhibitor which restores susceptibility of efflux − (MB9799) strain to imipenem [1]: 1.563
- Serratia marcescens MITC95 [2]: 1.563 µM
- Escherichia coli MITC95 [3]: 0.7813 µM
- Klebsiella pneumoniae MITC95 [4]: 12.5 µM
- Concentration of metallo-β-lactamase inhibitor which restores susceptibility of efflux + (MB9798) strain to imipenem [5]: 6.25
- IC50 ([6]; VIM-1 IC50, fluorescence assay): 27800 pM
- IC50 [7]: 11800 pM
- IC50 [8]: 7730 pM
- Efflux ratio [9]: 4.00

SMILES: NCCNC(=O)c1cc(-c2ccc(S(=O)(=O)NCCN)c(S(N)(=O)=O)c2-c2nn[nH]n2)ccc1N [Example 451, 4-Amino-N-(2-aminoethyl)-4′-(N-(2-aminoethyl)sulfamoyl)-3′-sulfamoyl-2′-(2H-tetrazol-5-yl)-[1,1′-biphenyl]-3-carboxamide]
- Concentration of metallo-β-lactamase inhibitor which restores susceptibility of efflux − (MB9799) strain to imipenem [1]: 0.7813
- Serratia marcescens MITC95 [2]: 0.7813 µM
- Escherichia coli MITC95 [3]: 0.7813 µM
- Klebsiella pneumoniae MITC95 [4]: 0.7813 µM
- Concentration of metallo-β-lactamase inhibitor which restores susceptibility of efflux + (MB9798) strain to imipenem [5]: 1.563
- IC50 [6, 10]: 557 pM
- IC50 [7]: 4020 pM
- IC50 [8]: 1700 pM
- Efflux ratio [9]: 2.00

SMILES: NCCNS(=O)(=O)c1ccc(-c2ccccc2NC(=O)CN)c(-c2nn[nH]n2)c1S(N)(=O)=O [Example 452]
- Concentration of metallo-β-lactamase inhibitor which restores susceptibility of efflux − (MB9799) strain to imipenem [1]: 1.563
- Serratia marcescens MITC95 [2]: 3.125 µM
- Escherichia coli MITC95 [3]: 3.125 µM
- Klebsiella pneumoniae MITC95 [4]: 6.25 µM
- Concentration of metallo-β-lactamase inhibitor which restores susceptibility of efflux + (MB9798) strain to imipenem [5]: 6.25
- IC50 [6, 10]: 994 pM
- IC50 [7]: 6210 pM
- IC50 [8]: 1720 pM
- Efflux ratio [9]: 4.00
